# “And” between values parts separate entries of the source, which are not always exact repeats. Equal entries are not always repeated. Where two headings read alike, the source gives them in different places.
# Tests used:
# [1] = system: Influenza A/Sydney/5/97; format: cell-based; settings: concentration that inhibited CPE by 50%; MDCK cells, up to 72 hours, MTT
# [2] = system: Influenza B/Harbin/7/95; format: cell-based; settings: concentration that inhibited CPE by 50%; MDCK cells, up to 72 hours, MTT
# [3] = system: A/New Caledonia/20/99 BVLV008 (H1N1); assay: Plaque reduction assay (PRA) in MDCK cells; format: cell-based, influenza A H1N1; settings: for EC50: Influenza A virus, H1N1, MDCK, reduces plaque numbers by 50%, A/New Caledonia/20/99 (H1N1)
# Protocol: (§1) Madin Darby Canine Kidney (MDCK) cells are seeded into six well tissue culture plates and grown to confluency via standard methods. Influenza viruses are diluted in a minimal volume of phosphate buffered saline supplemented with 0.2% bovine serum albumin to yield an estimated titre of 50–100 plaque forming units (pfu) per well. After adsorption to the MDCK cells for one hour at 37° C. in a 5% CO2 atmosphere the viral inocula is aspirated and replaced with viral growth media (minimal Eagle's media supplemented with BSA, trypsin and insulin/transferrin/selenium at optimal concentrations) containing sufficient agar or agarose (generally 1–2%) to cause the media to gel at room temperature and at 37° C. in a 5% CO2 atmosphere until plaques develop (generally 2–4 days). Plaques can be visualised with a suitable stain (e.g. 0.4% crystal violet in formal saline) before counting.
# [4] = system: A/Panama/2007/99 BVLV008 (H3N2); assay: Plaque reduction assay (PRA) in MDCK cells; format: cell-based, influenza A H3N2; settings: for EC50: Influenza A virus, H3N2, MDCK, reduces plaque numbers by 50%, A/Panama/2007/99 (H3N2), read-out: EC50 PRA A/Pan
# Protocol: as §1
# [5] = system: A/Victoria/3/75 BVLV017 (H3N2); assay: Plaque reduction assay (PRA) in MDCK cells; format: cell-based, influenza A H3N2; settings: for EC50: Influenza A virus, MDCK, reduces plaque numbers by 50%, A/Victoria/3/75 (H3N2), read-out: EC50 PRA A/Vic
# Protocol: as §1
# [6] = system: B/Hong Kong/5/72 BVLV012; assay: Plaque reduction assay (PRA) in MDCK cells; format: cell-based, influenza B; settings: for EC50: Influenza B virus, MDCK, read-out: EC50 PRA B/HongK
# Protocol: as §1
# [7] = system: B/Yamanashi/166/98 BVLV007; assay: Plaque reduction assay (PRA) in MDCK cells; format: cell-based, influenza B; settings: for EC50: Influenza B virus, MDCK, B/Yamanashi/166/98
# Protocol: as §1
# [8] = system: A/Bayern/7/95 BVL006 (H1N1); assay: Plaque reduction assay (PRA) in MDCK cells; format: cell-based, influenza A H1N1
# Protocol: as §1
# [9] = system: A/WSN/33 BVLV09 (H1N1); assay: Plaque reduction assay (PRA) in MDCK cells; format: cell-based, influenza A H1N1
# Protocol: as §1
# [10] = system: A/Sydney/5/97 BVLV015 (H3N2); assay: Plaque reduction assay (PRA) in MDCK cells; format: cell-based, influenza A H3N2
# Protocol: as §1
# [11] = Rat lung retention assay (intra-tracheal dosing, compound level in lung tissue); format: in vivo; settings: for [cmpd] / Mean [cmpd]: rat lung tissue; for [cmpd]: individual animal; for concentration at 48 h / concentration at 168 h: Mean [cmpd] ng/g
# Protocol: Rodents are anaesthetised and dosed with compound of interest by the intra-tracheal route at a dose volume of 0.8 ml/kg. The rodent is then held in the vertical position until full recovery is achieved. […] Any analytical method suitable for detection of this type of compound may be used. The time at which levels of compound fall below the sensitivity of the analytical techniques identified will determine the residency time of the compound in lung tissue.
# Please note that all experiments included a co-dosed internal standard, namely compound 3 of International Patent Publication No. WO 02/20514, to permit comparison. The data are expressed as a ratio with respect to this compound, the structure of which is shown below.
compound,measurement,setting,value
CC(=O)N[C@H]1[C@H]([C@H](OC(=O)NCCCNC(=O)c2cc(C(=O)O)cc(C(=O)NCCCNC(=O)O[C@@H]([C@@H]3OC(C(=O)O)=C[C@H](NC(=N)N)[C@H]3NC(C)=O)[C@H](O)CO)c2)[C@H](O)CO)OC(C(=O)O)=C[C@@H]1NC(=N)N [Compound 9],ID50 A/Sydney/5/97,[1],0.1 ng/mL
same,ID50 B/Harbin/7/95,[2],0.3 ng/mL
CC(=O)N[C@H]1[C@H]([C@H](OC(=O)NCCCCCCNC(=O)c2ccccc2C(=O)NCCCCCCNC(=O)O[C@@H]([C@@H]2OC(C(=O)O)=C[C@H](NC(=N)N)[C@H]2NC(C)=O)[C@H](O)CO)[C@H](O)CO)OC(C(=O)O)=C[C@@H]1NC(=N)N [Compound 7],ID50 A/Sydney/5/97,[1],0.7 ng/mL
same,ID50 B/Harbin/7/95,[2],0.8 ng/mL
CC(=O)N[C@H]1[C@H]([C@H](OC(=O)NCCCNC(=O)c2ccccc2C(=O)NCCCNC(=O)O[C@@H]([C@@H]2OC(C(=O)O)=C[C@H](NC(=N)N)[C@H]2NC(C)=O)[C@H](O)CO)[C@H](O)CO)OC(C(=O)O)=C[C@@H]1NC(=N)N [Compound 12],ID50 A/Sydney/5/97,[1],>100 ng/mL
same,ID50 B/Harbin/7/95,[2],0.1 ng/mL
CCOC(=O)C1=C[C@@H](OC(CC)CC)[C@H](NC(C)=O)[C@@H](N)C1 [Oseltamivir],EC50,[3],0.23 ng/mL
same,EC50,[4],0.3 ng/mL
same,EC50,[5],0.11 ng/mL
same,EC50,[6],32 ng/mL
same,EC50,"[7]; read-out: EC50 PRA B/Yam, reduces plaque numbers by 50%",0.7 ng/mL
NC12CC3CC(CC(C3)C1)C2 [Amantadine],EC50,[3],11 ng/mL
same,EC50,[4],157 ng/mL
same,EC50,[5],220 ng/mL
same,EC50,"[6]; reduces plaque numbers by 50%, B/Hong Kong/5/72",> 10000 ng/mL
same,EC50,"[7]; reduces plaque numbers by 50%, read-out: EC50 PRA B/Yam",2060 ng/mL
CC(=O)N[C@H]1[C@H]([C@H](OC(=O)NCCCCCCNC(=O)c2ccc(C(=O)NCCCCCCNC(=O)O[C@@H]([C@@H]3OC(C(=O)O)=C[C@H](NC(=N)N)[C@H]3NC(C)=O)[C@H](O)CO)cc2)[C@H](O)CO)OC(C(=O)O)=C[C@@H]1NC(=N)N [Compound 6],ID50 A/Sydney/5/97,[1],0.2 ng/mL
same,ID50 B/Harbin/7/95,[2],0.9 ng/mL
CC(=O)N[C@@H]1[C@@H](NC(=N)N)C=C(C(=O)O)O[C@H]1C(OC(=O)NCCC(=O)NCc1ccc(CNC(=O)CCNC(=O)O[C@@H]([C@@H]2OC(C(=O)O)=C[C@H](NC(=N)N)[C@H]2NC(C)=O)[C@H](O)CO)cc1)[C@H](O)CO (stereo partly shown) [Compound 4],ID50 A/Sydney/5/97,[1],0.3 ng/mL
same,ID50 B/Harbin/7/95,[2],0.4 ng/mL
CC(=O)N[C@H]1[C@H]([C@H](OC(=O)NCCCNC(=O)c2ccc(C(=O)NCCCNC(=O)O[C@@H]([C@@H]3OC(C(=O)O)=C[C@H](NC(=N)N)[C@H]3NC(C)=O)[C@H](O)CO)cc2)[C@H](O)CO)OC(C(=O)O)=C[C@@H]1NC(=N)N [Compound 5],EC50 PRA A/Bay,[8],0.009 ng/mL
same,EC50 PRA A/New,[3],0.06 ng/mL
same,EC50 PRA A/WSN,[9],0.02 ng/mL
same,EC50 PRA A/Pan,[4],0.03 ng/mL
same,EC50 PRA A/Syd,[10],0.05 ng/mL
same,EC50 PRA A/Vic,[5],0.003 ng/mL
same,EC50 PRA B/HongK,[6],0.316 ng/mL
same,EC50 PRA B/Yam,[7],0.022 ng/mL
same,[cmpd],"[11]; 48 hrs, 0.1 mg/kg intra-tracheal, 0.1 mg/kg",1325 ng/g and 750 ng/g and 778 ng/g
same,Mean [cmpd],"[11]; 48 hrs, 0.1 mg/kg intra-tracheal",951 ng/g
same,[cmpd],"[11]; 168 hrs, 0.1 mg/kg intra-tracheal, 0.1 mg/kg",272 ng/g and 636 ng/g and 300 ng/g
same,Mean [cmpd],"[11]; 168 hrs, 0.1 mg/kg intra-tracheal",403 ng/g
same,Ratio Mean [lung] [cmpd]/PCT AU01/01128 compound 3,"[11]; rat lung, 48 hrs, 0.1 mg/kg intra-tracheal",0.68
same,Ratio Mean [lung] [cmpd]/PCT AU01/01128 compound 3,"[11]; rat lung, 168 hrs, 0.1 mg/kg intra-tracheal",0.41
CC(=O)N[C@H]1[C@H]([C@H](OC(=O)NCCCNC(=O)Cc2ccccc2CC(=O)NCCCNC(=O)O[C@@H]([C@@H]2OC(C(=O)O)=C[C@H](NC(=N)N)[C@H]2NC(C)=O)[C@H](O)CO)[C@H](O)CO)OC(C(=O)O)=C[C@@H]1NC(=N)N [Compound 14],ID50 A/Sydney/5/97,[1],0.2 ng/mL
same,ID50 B/Harbin/7/95,[2],0.3 ng/mL
CC(=O)N[C@H]1[C@H]([C@H](OC(=O)NCCCCCCNC(=O)c2cccc(C(=O)NCCCCCCNC(=O)O[C@@H]([C@@H]3OC(C(=O)O)=C[C@H](NC(=N)N)[C@H]3NC(C)=O)[C@H](O)CO)c2)[C@H](O)CO)OC(C(=O)O)=C[C@@H]1NC(=N)N [Compound 8],ID50 A/Sydney/5/97,[1],0.4 ng/mL
same,ID50 B/Harbin/7/95,[2],0.9 ng/mL
CC(=O)N[C@H]1[C@H]([C@H](OC(=O)NCCCNC(=O)c2cccc(C(=O)NCCCNC(=O)O[C@@H]([C@@H]3OC(C(=O)O)=C[C@H](NC(=N)N)[C@H]3NC(C)=O)[C@H](O)CO)c2)[C@H](O)CO)OC(C(=O)O)=C[C@@H]1NC(=N)N [Compound 11],ID50 A/Sydney/5/97,[1],0.1 ng/mL
same,ID50 B/Harbin/7/95,[2],0.1 ng/mL
CC(=O)N[C@H]1[C@H]([C@H](OC(=O)NCCCNC(=O)Cc2ccc(CC(=O)NCCCNC(=O)O[C@@H]([C@@H]3OC(C(=O)O)=C[C@H](NC(=N)N)[C@H]3NC(C)=O)[C@H](O)CO)cc2)[C@H](O)CO)OC(C(=O)O)=C[C@@H]1NC(=N)N [Compound 13],ID50 A/Sydney/5/97,[1],0.1 ng/mL
same,ID50 B/Harbin/7/95,[2],0.3 ng/mL
CC(=O)N[C@H]1[C@H]([C@H](OC(=O)NCCCCNS(=O)(=O)c2cccc(S(=O)(=O)NCCCCNC(=O)O[C@@H]([C@@H]3OC(C(=O)O)=C[C@H](NC(=N)N)[C@H]3NC(C)=O)[C@H](O)CO)c2)[C@H](O)CO)OC(C(=O)O)=C[C@@H]1NC(=N)N [Compound 3],ID50 A/Sydney/5/97,[1],0.1 ng/mL
same,ID50 B/Harbin/7/95,[2],0.07 ng/mL
same,Ratio Mean [lung] [cmpd]/PCT AU01/01128 compound 3,"[11]; rat, in vivo, 0.1 mg/kg, 48 h",0.49
same,Ratio Mean [lung] [cmpd]/PCT AU01/01128 compound 3,"[11]; rat, in vivo, 0.1 mg/kg, 168 h",0.36
same,concentration at 48 h,"[11]; rat, in vivo, 0.1 mg/kg",1410 ng/g
same,concentration at 168 h,"[11]; rat, in vivo, 0.1 mg/kg",329 ng/g
CC(=O)N[C@H]1[C@H]([C@H](OC(=O)NCCCCNC(=O)c2cccc(C(=O)NCCCCNC(=O)O[C@@H]([C@@H]3OC(C(=O)O)=C[C@H](NC(=N)N)[C@H]3NC(C)=O)[C@H](O)CO)c2)[C@H](O)CO)OC(C(=O)O)=C[C@@H]1NC(=N)N [Compound 1],Ratio Mean [lung] [cmpd]/PCT AU01/01128 compound 3,"[11]; rat, in vivo, 0.1 mg/kg, 48 h",0.44
same,Ratio Mean [lung] [cmpd]/PCT AU01/01128 compound 3,"[11]; rat, in vivo, 0.1 mg/kg, 168 h",0.41
same,concentration at 48 h,"[11]; rat, in vivo, 0.1 mg/kg",1280 ng/g
same,concentration at 168 h,"[11]; rat, in vivo, 0.1 mg/kg",372 ng/g

# From patent US7157494B2, “Dimeric compounds and their use as anti-viral agents” (priority 2001, dated 2007)
